# Tests used:
# [1] = molecular target: T1, serotoninergic 5-HT1A receptor (Homo sapiens, UniProt P08908); experiment: Binding assay 5-HT1A (h), [3H]8-OH-DPAT, HEK-293 cells; set-up: expressed in transfected cells; host or cells: HEK-293 cells; settings: read-out: 5-HT1A
# T1 sequence (P08908 1-422): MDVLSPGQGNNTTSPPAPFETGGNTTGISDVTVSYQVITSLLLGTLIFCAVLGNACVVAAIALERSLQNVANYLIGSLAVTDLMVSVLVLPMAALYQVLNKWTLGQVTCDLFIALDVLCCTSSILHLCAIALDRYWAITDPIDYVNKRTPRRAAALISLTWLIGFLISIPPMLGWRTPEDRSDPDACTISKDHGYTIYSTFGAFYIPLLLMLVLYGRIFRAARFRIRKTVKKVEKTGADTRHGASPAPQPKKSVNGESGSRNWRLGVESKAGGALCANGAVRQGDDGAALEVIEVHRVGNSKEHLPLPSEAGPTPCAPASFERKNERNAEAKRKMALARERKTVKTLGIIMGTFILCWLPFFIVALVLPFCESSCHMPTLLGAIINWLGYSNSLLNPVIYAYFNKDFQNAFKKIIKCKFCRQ
# Procedure, shortened: (§1)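 At 1×10^−6 M, compounds were assessed for their effect on specific radioligand binding, computed as total less nonspecific binding (excess unlabelled ligand present).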
# [2] = molecular target: serotoninergic 5-HT7 receptor (Homo sapiens, UniProt P34969); experiment: Binding assay 5-HT7 (h), [3H]LSD, CHO cells; set-up: expressed in transfected cells; host or cells: CHO cells; settings: read-out: 5-HT7
# Procedure, shortened: as §1
# [3] = molecular target: dopaminergic D3 receptor (Homo sapiens, UniProt P35462); experiment: Binding assay D3 (h), [3H]methyl-spiperone, CHO cells; set-up: expressed in transfected cells; host or cells: CHO cells; settings: read-out: D3 [%]
# Procedure, shortened: as §1
# [4] = molecular target: T2, serotonine transporter (SERT) receptor (Homo sapiens, UniProt P31645); experiment: Binding assay SERT (h), [3H]imipramine, CHO cells; settings: read-out: SERT [%]
# T2 construct: expressed in transfected cells; host or cells: CHO cells
# Procedure, shortened: as §1
# [5] = system: adrenergic α1 receptor; experiment: Binding assay α1 (non-selective), [3H]prazosin, rat cerebral cortex; settings: percent inhibition of control specific binding; compounds tested at 1×10^−6 M
# Procedure, shortened: as §1
# [6] = molecular target: serotoninergic 5-HT6 receptor (Homo sapiens, UniProt P50406); experiment: Binding assay 5-HT6 (h), [3H]LSD, CHO cells; set-up: expressed in transfected cells; host or cells: CHO cells; settings: read-out: 5-HT6
# Procedure, shortened: as §1
# [7] = molecular target: dopaminergic D2 receptor (Homo sapiens, UniProt P14416); experiment: Binding assay D2S (h), [3H]methyl-spiperone, HEK-293 cells; set-up: expressed in transfected cells; host or cells: HEK-293 cells; settings: read-out: D2 [%]
# Procedure, shortened: as §1
# [8] = molecular target: serotoninergic 5-HT2A receptor (Homo sapiens, UniProt P28223); experiment: Binding assay 5-HT2A (h), [3H]ketanserin, HEK-293 cells; set-up: expressed in transfected cells; host or cells: HEK-293 cells; settings: read-out: 5-HT2A
# Procedure, shortened: as §1
# Chain of serotoninergic 5-HT6 receptor (P50406 whole entry): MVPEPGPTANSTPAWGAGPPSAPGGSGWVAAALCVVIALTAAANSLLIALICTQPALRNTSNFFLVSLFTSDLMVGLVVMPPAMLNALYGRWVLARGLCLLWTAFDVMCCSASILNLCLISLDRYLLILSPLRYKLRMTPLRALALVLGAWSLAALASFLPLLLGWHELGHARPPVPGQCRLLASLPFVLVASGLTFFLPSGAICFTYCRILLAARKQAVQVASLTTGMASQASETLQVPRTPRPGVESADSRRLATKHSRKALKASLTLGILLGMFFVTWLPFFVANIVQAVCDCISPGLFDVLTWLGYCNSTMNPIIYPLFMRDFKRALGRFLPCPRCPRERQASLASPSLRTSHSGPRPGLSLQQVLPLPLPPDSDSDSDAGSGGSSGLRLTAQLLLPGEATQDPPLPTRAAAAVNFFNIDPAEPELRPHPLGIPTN
# Chain of serotoninergic 5-HT7 receptor (P34969 whole entry): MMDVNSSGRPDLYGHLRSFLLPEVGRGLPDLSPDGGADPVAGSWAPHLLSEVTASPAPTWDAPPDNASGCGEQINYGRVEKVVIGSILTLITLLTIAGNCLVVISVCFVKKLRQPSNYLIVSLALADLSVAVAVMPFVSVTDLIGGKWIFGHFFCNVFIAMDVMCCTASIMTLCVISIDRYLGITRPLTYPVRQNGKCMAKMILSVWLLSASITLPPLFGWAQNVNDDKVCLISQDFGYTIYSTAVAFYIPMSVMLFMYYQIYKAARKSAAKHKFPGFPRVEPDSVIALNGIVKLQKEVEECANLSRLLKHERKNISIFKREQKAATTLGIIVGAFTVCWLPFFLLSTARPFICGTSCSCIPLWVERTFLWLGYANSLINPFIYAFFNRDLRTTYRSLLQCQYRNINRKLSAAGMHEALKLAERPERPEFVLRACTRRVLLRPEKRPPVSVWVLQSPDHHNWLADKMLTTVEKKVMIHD
# Chain of serotoninergic 5-HT2A receptor (P28223 whole entry): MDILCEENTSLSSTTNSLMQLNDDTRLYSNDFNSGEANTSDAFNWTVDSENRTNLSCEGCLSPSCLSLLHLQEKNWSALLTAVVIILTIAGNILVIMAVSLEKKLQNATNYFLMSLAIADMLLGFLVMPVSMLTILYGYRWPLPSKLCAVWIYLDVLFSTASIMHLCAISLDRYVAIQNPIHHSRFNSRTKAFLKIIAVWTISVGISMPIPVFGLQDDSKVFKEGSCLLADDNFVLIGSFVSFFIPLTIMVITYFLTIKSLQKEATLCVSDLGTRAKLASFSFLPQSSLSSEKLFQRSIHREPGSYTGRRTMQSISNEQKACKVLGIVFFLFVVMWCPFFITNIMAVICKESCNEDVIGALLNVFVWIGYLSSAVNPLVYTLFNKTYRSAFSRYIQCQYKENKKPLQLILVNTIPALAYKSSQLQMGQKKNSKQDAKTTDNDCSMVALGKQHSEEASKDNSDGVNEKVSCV
# Chain of dopaminergic D2 receptor (P14416 1-414 isoform P14416-2): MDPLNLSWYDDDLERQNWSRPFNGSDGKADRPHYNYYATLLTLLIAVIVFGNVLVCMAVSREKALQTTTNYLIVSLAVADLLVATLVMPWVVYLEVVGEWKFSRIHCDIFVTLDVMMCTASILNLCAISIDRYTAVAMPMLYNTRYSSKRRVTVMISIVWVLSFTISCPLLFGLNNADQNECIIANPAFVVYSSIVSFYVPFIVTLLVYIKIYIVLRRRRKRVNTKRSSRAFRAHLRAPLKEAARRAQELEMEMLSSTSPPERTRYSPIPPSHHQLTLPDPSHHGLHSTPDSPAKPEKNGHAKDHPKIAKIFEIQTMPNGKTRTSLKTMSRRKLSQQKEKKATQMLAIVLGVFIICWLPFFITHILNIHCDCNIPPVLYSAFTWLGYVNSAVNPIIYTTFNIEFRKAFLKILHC
# Chain of dopaminergic D3 receptor (P35462 whole entry): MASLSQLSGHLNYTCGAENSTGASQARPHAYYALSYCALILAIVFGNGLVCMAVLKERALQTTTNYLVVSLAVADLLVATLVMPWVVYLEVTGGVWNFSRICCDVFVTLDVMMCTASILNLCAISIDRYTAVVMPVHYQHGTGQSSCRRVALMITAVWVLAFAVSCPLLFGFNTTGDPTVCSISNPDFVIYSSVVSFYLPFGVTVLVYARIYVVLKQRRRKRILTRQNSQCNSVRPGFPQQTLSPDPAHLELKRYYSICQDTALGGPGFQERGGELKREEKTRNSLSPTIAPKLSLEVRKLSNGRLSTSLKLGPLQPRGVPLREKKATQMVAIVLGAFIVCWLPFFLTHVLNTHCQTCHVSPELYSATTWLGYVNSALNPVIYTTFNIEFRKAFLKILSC
# T2 sequence (P31645 whole entry): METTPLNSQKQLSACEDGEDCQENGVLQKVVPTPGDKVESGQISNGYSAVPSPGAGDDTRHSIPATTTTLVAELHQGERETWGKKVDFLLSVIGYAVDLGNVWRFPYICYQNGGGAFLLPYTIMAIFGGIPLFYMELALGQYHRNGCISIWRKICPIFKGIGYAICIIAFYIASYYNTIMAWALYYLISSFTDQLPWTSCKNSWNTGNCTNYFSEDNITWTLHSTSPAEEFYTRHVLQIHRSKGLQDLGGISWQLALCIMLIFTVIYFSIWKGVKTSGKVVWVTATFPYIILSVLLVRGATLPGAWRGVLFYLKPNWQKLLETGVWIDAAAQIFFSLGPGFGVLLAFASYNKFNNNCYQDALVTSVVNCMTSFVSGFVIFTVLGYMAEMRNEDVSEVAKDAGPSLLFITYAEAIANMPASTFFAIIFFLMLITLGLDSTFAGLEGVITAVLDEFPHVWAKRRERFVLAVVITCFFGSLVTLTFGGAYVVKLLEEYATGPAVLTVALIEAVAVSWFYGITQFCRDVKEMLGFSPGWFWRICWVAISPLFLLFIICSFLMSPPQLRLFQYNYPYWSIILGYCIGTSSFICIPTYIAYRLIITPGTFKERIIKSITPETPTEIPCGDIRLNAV
Structure (SMILES),inhibition at 1 µM [1],inhibition at 1 µM [2],inhibition at 1 µM [3],inhibition at 1 µM [4],α1 [%] [5],inhibition at 1 µM [6],inhibition at 1 µM [7],inhibition at 1 µM [8]
"O=S(=O)(NCCCN1CCN(c2nsc3ccccc23)CC1)c1cccc(O)c1 [Compound 254, N-[3-[4-(1,2-Benzothiazol-3-yl)piperazin-1-yl]propyl]-3-hydroxybenzenesulphonamide]",94%,93%,98%,9%,96%,76%,87%,90%
"O=S(=O)(NCCCN1CCN(c2cccc3c2OCCO3)CC1)c1cccc(Cl)c1 [Compound 411, 3-Chloro-N-[3-[4-(2,3-dihydro-1,4-benzodioxin-5-yl)piperazin-1-yl]propyl]benzenesulphonamide]",95%,89%,52%,12%,87%,41%,40%,4%
"O=C1COc2c(cccc2N2CCN(CCCCNS(=O)(=O)c3cccc(C(F)(F)F)c3)CC2)N1 [Compound 430, N-[4-[4-(3-oxo-4H-1,4-benzoxazin-8-yl)piperazin-1-yl]butyl]-3-(trifluoromethyl)benzenesulphonamide]",86%,84%,101%,19%,46%,94%,69%,87%
"O=S(=O)(NCCCCN1CCN(c2nsc3ccccc23)CC1)c1c[nH]c2ncccc12 [Compound 247, N-[4-[4-(1,2-Benzothiazol-3-yl)piperazin-1-yl]butyl]-1H-pyrrolo[2,3-b]pyridine-3-sulphonamide]",78%,93%,83%,14%,98%,93%,104%,88%
"O=S(=O)(NCCCN1CCN(c2cccc3c2OCCO3)CC1)c1ccc2cc(Cl)ccc2c1 [Compound 407, 6-Chloro-N-[3-[4-(2,3-dihydro-1,4-benzodioxin-5-yl)piperazin-1-yl]propyl]naphthalene-2-sulphonamide]",88%,102%,84%,-2%,72%,37%,58%,50%
"O=S(=O)(NCCCCN1CCN(c2nsc3ccccc23)CC1)c1cccc(Cl)c1 [Compound 69, N-[4-[4-(1,2-Benzothiazol-3-yl)piperazin-1-yl]butyl]-3-chlorobenzenesulphonamide]",80%,96%,77%,6%,94%,88%,106%,92%
"O=S(=O)(NCCCCN1CCN(c2cccc3c2OCCO3)CC1)c1cccc(F)c1 [Compound 388, N-[4-[4-(2,3-Dihydro-1,4-benzodioxin-5-yl)piperazin-1-yl]butyl]-3-fluorobenzenesulphonamide]",92%,90%,83%,-28%,91%,-20%,50%,19%
"O=S(=O)(NCCCCN1CCN(c2nsc3ccccc23)CC1)c1ccc(Cl)cc1 [Compound 227, N-[4-[4-(1,2-Benzothiazol-3-yl)piperazin-1-yl]butyl]-4-chlorobenzenesulphonamide]",89%,94%,90%,2%,92%,76%,104%,90%
"O=S(=O)(NCCCCN1CCN(c2nsc3ccccc23)CC1)c1ccc(F)c(F)c1 [Compound 226, N-[4-[4-(1,2-Benzothiazol-3-yl)piperazin-1-yl]butyl]-3,4-difluorobenzenesulphonamide]",90%,92%,90%,4%,94%,78%,87%,100%
"Cc1[nH]c2ccc(Cl)cc2c1C1=CCN(CCCCNS(=O)(=O)c2cccc(F)c2)CC1 [Compound 139, N-[4-[4-(5-Chloro-2-methyl-1H-indol-3-yl)-3,6-dihydro-2H-pyridin-1-yl]butyl]-3-fluorobenzenesulphonamide]",57%,56%,92%,17%,20%,96%,52%,41%
"Cc1cccc(S(=O)(=O)NCCCCN2CCN(c3cccc4c3OCCO4)CC2)c1 [Compound 395, N-[4-[4-(2,3-Dihydro-1,4-benzodioxin-5-yl)piperazin-1-yl]butyl]-3-methylbenzenesulphonamide]",75%,83%,87%,69%,92%,-35%,61%,61%
"O=S(=O)(NCCCN1CCN(c2cccc3c2OCCO3)CC1)c1cccc2ccccc12 [Compound 405, N-[3-[4-(2,3-Dihydro-1,4-benzodioxin-5-yl)piperazin-1-yl]propyl]naphthalene-1-sulphonamide]",97%,93%,62%,-5%,82%,53%,68%,74%
"Cc1cc(S(=O)(=O)NCCCN2CCC(c3noc4cc(F)ccc34)CC2)c(C)s1 [Compound 342, N-[3-[4-(6-Fluoro-1,2-benzoxazol-3-yl)piperidin-1-yl]propyl]-2,5-dimethyl-thiophene-3-sulphonamide]",74%,96%,99%,26%,103%,100%,106%,106%
"O=S(=O)(NCCCCN1CCC(c2noc3cc(F)ccc23)CC1)c1ccc(OC(F)(F)F)cc1 [Compound 304, N-[4-[4-(6-Fluoro-1,2-benzoxazol-3-yl)piperidin-1-yl]butyl]-4-(trifluoromethoxy)-benzenesulphonamide]",60%,93%,87%,4%,101%,78%,94%,76%
"O=S(=O)(NCCCN1CCN(c2cccc3c2OCCO3)CC1)c1cccc(F)c1 [Compound 409, N-[3-[4-(2,3-Dihydro-1,4-benzodioxin-5-yl)piperazin-1-yl]propyl]-3-fluorobenzenesulphonamide]",81%,91%,85%,2%,81%,-9%,79%,66%
"N#Cc1cccc(S(=O)(=O)NCCCCN2CCN(c3noc4ccccc34)CC2)c1 [Compound 282, N-[4-[4-(1,2-Benzoxazol-3-yl)piperazin-1-yl]butyl]-3-cyanobenzenesulphonamide]",50%,98%,87%,12%,102%,64%,97%,78%
"O=S(=O)(NCCCN1CCC(c2noc3cc(F)ccc23)CC1)c1ccc(Cl)c(Cl)c1 [Compound 329, 3,4-Dichloro-N-[3-[4-(6-fluoro-1,2-benzoxazol-3-yl)piperidin-1-yl]propyl]benzenesulphonamide]",69%,95%,99%,-2%,102%,97%,109%,91%
